From patent US20040152126A1, “Methods of screening for cox-2 inhibitors” (priority 1999, published 2004) come the findings set out here.

For experiment [1], the system named is endogenous cox-2 gene (mRNA of cox-2). The experiment can be described thus: RT-PCR analysis of the expression of cox-2 mRNA in Jurkat cells. Format: cell-based, human. The note with it: PMA 10 ng/ml alone or with calcium ionophore A23187 1 μM, FIG. 3(A). The protocol:
In order to study the regulation of the expression of the endogenous cox-2 gene in the Jurkat cell line, the analysis of the expression of its mRNA was performed by experiments with RT-PCR. At the same time, in order to validate the prom2-1906-LUC construct and to check that the regulation of the cloned promoter is as expected, experiments were carried out of transitory transfection of the prom2-1906-LUC construct using the Jurkat cell line. In both experiments, the cells were treated with compounds that stimulate and inhibit the induction of the promoter of cox-2.
Treatment with activator compounds were carried out using the phorbol ester PMA (Phorbol 12-Myristate 13-Acetate) (10 ng/ml) (Sigma) and the combination of PMA and Calcium ionophore A23187 (1 μM) (Sigma), hereinafter PMA+Ion.
Treatment with drugs that inhibit the induction by PMA+Ion were carried out with cyclosporin A (CsA) (100 ng/ml) or the synthetic glucocorticoide Dexamethasone (Dex) (1 μM) (Sigma).
The results obtained from the analysis by RT-PCR of the expression of mRNA of cox-2 in Jurkat cells are presented in FIG. 3, where the following can be observed:
As a control in both cases, the result obtained for the non-inducible mRNAs of the cox-1 isoform and for the glycerol aldehyde phosphate dehydrogenase (GAPDH) are shown.

Experiment [2] deals with cox-2 promoter. Kind of experiment: Luciferase activity in stable Jurkat-1906LUC clones (Jurkat-C3-, F9-, C7-1906LUC).
Experimental: The transfection was carried out by means of the technique of electroporation in cuvettes of 0.4 cm (BioRad) with 15×10^6 cells in 0.5 ml of complete medium [RMPI medium supplemented with 10% of foetal serum, L-glutamine 2mM and a mixture of antibiotics] […] After this period, the cells were electroporated in a Gene Pulser II (BioRad) apparatus at 1.500 μFaradays of capacitance and a current of 280 V. Next, the cells were incubated over ice for 10 minutes before adding 10 ml of complete medium. The cells were cultured in this medium in 75 cm^2 culture flasks (Nunc) for 48 hours in a cell incubator at 37° C. with a humidity of 95% and 5% of Co2. At this time, the medium was changed for complete medium with no antibiotics to which hygromycin (Boehringer Mannheim) was added at a concentration of 200 μg/ml. The cells were cultured in this medium for 30 days with successive changes of medium. […] For this, 1×10^6 cells were lysed in 50 μl of lysis buffer (Promega) and with the extracts obtained, the luciferase activity was determined using the reagents contained in the kit of the “Luciferase Assay System” [Promega].
These clones were grown until obtaining at least 1×10^6 cells with which measurement of the luciferase activity could be performed as described earlier. […]

Regarding `CCCCCCCCCCCCCC(=O)O[C@@H]1[C@@H](C)[C@@]2(O)[C@@H](C=C(CO)C[C@]3(O)C(=O)C(C)=C[C@@H]23)[C@@H]2C(C)(C)[C@]12OC(C)=O` [PMA, Phorbol 12-Myristate 13-Acetate], the “expression of the mRNA of cox-2” value in experiment [1] is given as “slight increase”. The “increase of the basal values of luciferase activity” value in experiment [2] (three stable clones, treatment of 6 hours, FIG. 7) is on record as 3 to 6 times.

Consider `Oc1ccc(C=Cc2cc(O)cc(O)c2)cc1` [Resveratrol], for which the “inhibition of the stimulation obtained with PMA+Ion (luciferase activity)” value in experiment [2] (stable Jurkat clones, 1 hour pre-treatment with compound, then PMA+Ion for 5 hours, FIGS. 8-10) is given as “produces an inhibition of the stimulation obtained with PMA+Ion”.
